Values quoted from earlier work, collected in patent publication US20080004279A1, “Use of C-Kit Inhibitors for Treating Plasmodium Related Diseases” (priority 2004, published 2008).
One block for each compound: values may come before it.

Columns and labels:
[1] = test system: membrane bound PTK
[2] = test system: GPI-induced NO production in macrophages and vascular endothelial cells

- IC50 ([1]; read-out: inhibition of membrane bound PTK activity, IC50, dose dependent, P. falciparum): 45 µM
Compound: CCN(CC)CCCC(C)Nc1ccnc2cc(Cl)ccc12 (stereo not drawn) [Chloroquine]
- mode of inhibition of PTK with respect to ATP ([1]; kinetic studies): noncompetitive
- mode of inhibition of PTK with respect to peptide substrate ([1]; kinetic studies): competitive inhibitor

Compound: O=c1c(-c2ccc(O)cc2)coc2cc(O)cc(O)c12 [genistein]
- release of NO by parasite extracts and by GPI ([2]; GPI alone or in combination with IFN-gamma): inhibited

Compound: S=C(S)N1CCCC1 [pyrrolidine dithiocarbamate]
- GPI-induced NO production / release [2]: blocked

Compound: calphostin C
- GPI-induced NO production / release [2]: blocked
